Here are results for 2 compounds from ChEMBL document CHEMBL5647694, “Novel orally bioavailable EZH1/2 dual inhibitors with greater antitumor efficacy than an EZH2 selective inhibitor” (Cancer Sci, 2017).

Assay [1] addresses Protein-tyrosine kinase 6 (Homo sapiens) (UniProt Q13882). In words: Inhibition of N-terminal GST-fused full length human BRK (2 to 451 residues) expressed in baculovirus-infected Sf21 cells using Blk/Lyntide as substrate at 1 uM in presence of ATP by Mobility shift assay.
Assay [2] addresses Tyrosine-protein kinase JAK3 (Homo sapiens) (UniProt P52333). In words: Inhibition of N-terminal His-tagged human JAK3 catalytic domain (795 to 1124 residues) expressed in baculovirus-infected Sf21 cells using Srctide as substrate at 1 uM in presence of ATP by Mobility shift assay.
In assay [3] the target is Vascular endothelial growth factor receptor 2 (Homo sapiens) (UniProt P35968). The assay can be described thus: Inhibition of N-terminal GST-tagged human KDR cytoplasmic domain (790 to 1356 residues) expressed in baculovirus-infected Sf21 cells using CSKtide as substrate at 1 uM in presence of ATP by Mobility shift assay.
For assay [4], the target named is Proto-oncogene tyrosine-protein kinase Src (Homo sapiens) (UniProt P12931). The assay can be described thus: Inhibition of N-terminal GST-tagged full length human SRC (1 to 536 residues) expressed in baculovirus-infected Sf21 cells using Srctide as substrate at 1 uM in presence of ATP by Mobility shift assay.
Assay [5] addresses Tyrosine-protein kinase Yes (Homo sapiens) (UniProt P07947). In words: Inhibition of N-terminal GST-tagged full length human YES (1 to 543 residues) expressed in baculovirus-infected Sf21 cells using Srctide as substrate at 1 uM in presence of ATP by Mobility shift assay.
Assay [6] addresses RAC-gamma serine/threonine-protein kinase (Homo sapiens) (UniProt Q9Y243). The assay can be described thus: Inhibition of N-terminal GST-tagged human AKT3 catalytic domain (108 to 479 residues) co-expressed with His-tagged PDK1 (1 to 556 residues) in baculovirus-infected Sf21 cells using Crosstide as substrate at 1 uM in presence of ATP by Mobility shift assay.
Assay [7] concerns the target AMPK alpha2/beta1/gamma1 (Homo sapiens) (UniProt P54646+P54619+Q9Y478). The assay can be described thus: Inhibition of N-terminal GST-tagged full-length human AMPK alpha2 (1 to 552 residues)/N-terminal GST-tagged human AMPK beta1 (1 to 270 residues)/N-terminal GST-tagged human AMPK gamma1 (1 to 331 residues) expressed in baculovirus-infected Sf21 cells using SAMS peptide as substrate at 1 uM in presence of ATP by Mobility shift assay.

The target in assay [8] is Aurora kinase C (Homo sapiens) (UniProt Q9UQB9). The assay can be described thus: Inhibition of N-terminal GST-fused full length human AurC (1 to 275 residues) expressed in baculovirus-infected Sf21 cells using Kemptide as substrate at 1 uM in presence of ATP by Mobility shift assay.
The target in assay [9] is Cyclin-dependent kinase 2/cyclin E1 (Homo sapiens) (UniProt P24864+P24941). In words: Inhibition of N-terminal GST-tagged full length human CDK2 (1 to 298 residues)/N-terminal GST-tagged human CyclinE1 (1 to 410 residues) expressed in baculovirus-infected Sf21 cells using Modified Histone H1 as substrate at 1 uM in presence of ATP by Mobility shift assay.
Assay [10] addresses Casein kinase I isoform alpha (Homo sapiens) (UniProt P48729). In words: Inhibition of N-terminal GST-fused full length human CK1alpha (1 to 337 residues) expressed in baculovirus expression system using CKtide as substrate at 1 uM in presence of ATP by Mobility shift assay.
The target in assay [11] is Dual specificity protein kinase CLK1 (Homo sapiens) (UniProt P49759). In words: Inhibition of N-terminal GST fused human CLK1 catalytic domain (129 to 484 residues) expressed in baculovirus expression system using DYRKtide-F as substrate at 1 uM in presence of ATP by Mobility shift assay.
Assay [12] has as its target Dual specificity protein kinase CLK3 (Homo sapiens) (UniProt P49761). In words: Inhibition of N-terminal GST-fused full length human CLK3 (1 to 490 residues) expressed in baculovirus expression system using DYRKtide-F as substrate at 1 uM in presence of ATP by Mobility shift assay.
Assay [13] deals with Homeodomain-interacting protein kinase 4 (Homo sapiens) (UniProt Q8NE63). The assay can be described thus: Inhibition of N-terminal GST-fused full length human HIPK4 (1 to 616 residues) expressed in baculovirus expression system using DYRKtide-F as substrate at 1 uM in presence of ATP by Mobility shift assay.
The target in assay [14] is Serine/threonine-protein kinase 38 (Homo sapiens) (UniProt Q15208). In words: Inhibition of N-terminal GST-fused full length human NDR1 (1 to 465 residues) expressed in baculovirus expression system using SGKtide as substrate at 1 uM in presence of ATP by Mobility shift assay.
Assay [15] has as its target Serine/threonine-protein kinase Nek6 (Homo sapiens) (UniProt Q9HC98). The assay can be described thus: Inhibition of N-terminal GST-fused full length human NEK6 (1 to 313 residues) expressed in baculovirus expression system using CDK7 peptide as substrate at 1 uM in presence of ATP by Mobility shift assay.
In assay [16] the target is Mitogen-activated protein kinase 12 (Homo sapiens) (UniProt P53778). The assay can be described thus: Inhibition of N-terminal GST-fused full length human p38gamma (1 to 367 residues) expressed in Escherichia coli expression system using Modified Erktide as substrate at 1 uM in presence of ATP by Mobility shift assay.
In assay [17] the target is Mitogen-activated protein kinase 13 (Homo sapiens) (UniProt O15264). The assay can be described thus: Inhibition of N-terminal GST-fused full length human p38delta (1 to 365 residues) expressed in Escherichia coli expression system using Modified Erktide as substrate at 1 uM in presence of ATP by Mobility shift assay.
For assay [18], the target named is Ribosomal protein S6 kinase beta-2 (Homo sapiens) (UniProt Q9UBS0). In words: Inhibition of N-terminal GST-fused full length human p70S6Kbeta (1 to 482 residues) expressed in baculovirus expression system using S6K2 peptide as substrate at 1 uM in presence of ATP by Mobility shift assay.
Assay [19] has as its target Serine/threonine-protein kinase pim-2 (Homo sapiens) (UniProt Q9P1W9). In words: Inhibition of N-terminal GST-tagged full length human PIM2 (1 to 311 residues) expressed in baculovirus expression system using S6K2 peptide as substrate at 1 uM in presence of ATP by Mobility shift assay.
For assay [20], the target named is Rho-associated protein kinase 1 (Homo sapiens) (UniProt Q13464). In words: Inhibition of N-terminal GST-fused human ROCK1 catalytic domain (1 to 477 residues) expressed in baculovirus expression system using LIMKtide as substrate at 1 uM in presence of ATP by Mobility shift assay.
The target of assay [21] is Testis-specific serine/threonine-protein kinase 2 (Homo sapiens) (UniProt Q96PF2). In words: Inhibition of N-terminal GST-fused full length human TSSK2 (1 to 358 residues) expressed in baculovirus expression system using GS peptide as substrate at 1 uM in presence of ATP by Mobility shift assay.
Assay [22] concerns the target 3-phosphoinositide-dependent protein kinase 1 (PDPK1) (Homo sapiens) (UniProt O15530). In words: Inhibition of N-terminal GST-fused full length human PDK1 (1 to 556 residues) expressed in baculovirus expression system using T308tide as substrate at 1 uM in presence of ATP by Mobility shift assay.

AMPK alpha2/beta1/gamma1 (Homo sapiens), sequence (P54619 whole entry partner, the tested form may be a part): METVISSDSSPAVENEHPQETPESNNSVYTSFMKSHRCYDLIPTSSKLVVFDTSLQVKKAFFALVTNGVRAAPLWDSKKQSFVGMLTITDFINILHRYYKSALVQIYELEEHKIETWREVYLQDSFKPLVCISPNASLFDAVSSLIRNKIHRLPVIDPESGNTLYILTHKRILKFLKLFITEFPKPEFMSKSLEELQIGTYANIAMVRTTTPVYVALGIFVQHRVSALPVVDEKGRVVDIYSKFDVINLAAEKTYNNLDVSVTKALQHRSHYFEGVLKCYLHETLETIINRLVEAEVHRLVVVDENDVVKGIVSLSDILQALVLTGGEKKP
AMPK alpha2/beta1/gamma1 (Homo sapiens), sequence (P54646 whole entry, the tested form may be a part): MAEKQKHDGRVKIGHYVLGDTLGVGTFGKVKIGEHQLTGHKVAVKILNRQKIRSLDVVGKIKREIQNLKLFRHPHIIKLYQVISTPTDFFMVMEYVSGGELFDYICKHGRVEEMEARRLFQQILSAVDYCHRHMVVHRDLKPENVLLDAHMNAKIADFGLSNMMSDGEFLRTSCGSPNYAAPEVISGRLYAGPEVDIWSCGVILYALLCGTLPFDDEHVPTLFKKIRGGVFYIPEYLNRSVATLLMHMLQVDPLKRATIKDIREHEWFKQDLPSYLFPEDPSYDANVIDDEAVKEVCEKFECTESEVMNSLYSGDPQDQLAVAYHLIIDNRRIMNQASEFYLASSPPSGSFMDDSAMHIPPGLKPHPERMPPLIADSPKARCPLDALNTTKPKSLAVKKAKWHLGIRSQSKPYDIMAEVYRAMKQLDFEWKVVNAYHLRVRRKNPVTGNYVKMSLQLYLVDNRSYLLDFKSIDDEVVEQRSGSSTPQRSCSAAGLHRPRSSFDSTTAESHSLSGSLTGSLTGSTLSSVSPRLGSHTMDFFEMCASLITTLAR
AMPK alpha2/beta1/gamma1 (Homo sapiens), sequence (Q9Y478 2-270 partner limits assumed): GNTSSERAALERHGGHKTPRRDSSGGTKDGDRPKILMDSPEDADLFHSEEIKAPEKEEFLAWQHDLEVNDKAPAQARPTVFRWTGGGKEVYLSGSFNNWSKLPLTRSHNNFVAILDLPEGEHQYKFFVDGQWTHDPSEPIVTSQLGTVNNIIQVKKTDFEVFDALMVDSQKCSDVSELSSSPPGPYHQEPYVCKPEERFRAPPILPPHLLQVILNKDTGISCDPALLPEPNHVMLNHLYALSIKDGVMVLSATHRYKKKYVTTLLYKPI
Mitogen-activated protein kinase 13 (Homo sapiens), sequence (O15264 whole entry, the tested form may be a part): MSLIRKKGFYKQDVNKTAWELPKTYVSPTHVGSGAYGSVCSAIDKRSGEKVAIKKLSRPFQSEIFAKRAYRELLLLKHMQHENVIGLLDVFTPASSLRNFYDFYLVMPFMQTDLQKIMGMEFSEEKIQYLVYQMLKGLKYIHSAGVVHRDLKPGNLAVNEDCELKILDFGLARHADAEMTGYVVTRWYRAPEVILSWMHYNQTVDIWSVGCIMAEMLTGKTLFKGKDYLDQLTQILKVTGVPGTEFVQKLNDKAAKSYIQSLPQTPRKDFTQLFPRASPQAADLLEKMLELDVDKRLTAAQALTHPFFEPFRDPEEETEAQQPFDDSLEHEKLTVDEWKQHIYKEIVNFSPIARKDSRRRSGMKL
Dual specificity protein kinase CLK3 (Homo sapiens), sequence (P49761 whole entry, looked up, the tested form may be a part): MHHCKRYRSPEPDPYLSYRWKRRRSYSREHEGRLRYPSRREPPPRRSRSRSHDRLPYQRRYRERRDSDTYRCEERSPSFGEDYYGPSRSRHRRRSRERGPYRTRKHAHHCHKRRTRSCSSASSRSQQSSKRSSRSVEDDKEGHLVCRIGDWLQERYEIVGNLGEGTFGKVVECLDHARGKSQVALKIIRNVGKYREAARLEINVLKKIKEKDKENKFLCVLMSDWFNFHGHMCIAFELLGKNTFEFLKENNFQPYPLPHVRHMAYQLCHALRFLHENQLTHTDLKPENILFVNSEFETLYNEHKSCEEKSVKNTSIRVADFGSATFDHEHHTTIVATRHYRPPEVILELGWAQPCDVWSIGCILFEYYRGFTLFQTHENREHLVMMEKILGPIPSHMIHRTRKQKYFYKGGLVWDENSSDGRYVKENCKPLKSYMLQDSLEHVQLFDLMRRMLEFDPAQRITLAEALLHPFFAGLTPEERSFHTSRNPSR
Casein kinase I isoform alpha (Homo sapiens), sequence (P48729 2-337 limits assumed): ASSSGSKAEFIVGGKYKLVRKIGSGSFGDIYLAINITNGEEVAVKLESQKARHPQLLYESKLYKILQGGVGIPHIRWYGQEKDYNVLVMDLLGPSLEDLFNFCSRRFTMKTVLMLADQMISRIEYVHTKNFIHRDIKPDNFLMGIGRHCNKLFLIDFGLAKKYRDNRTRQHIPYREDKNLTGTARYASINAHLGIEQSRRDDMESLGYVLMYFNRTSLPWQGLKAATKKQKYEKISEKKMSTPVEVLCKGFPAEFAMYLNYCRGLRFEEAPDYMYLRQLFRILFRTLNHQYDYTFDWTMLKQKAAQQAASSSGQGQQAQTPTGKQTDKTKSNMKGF
Tyrosine-protein kinase Yes (Homo sapiens), sequence (P07947 2-543 limits assumed): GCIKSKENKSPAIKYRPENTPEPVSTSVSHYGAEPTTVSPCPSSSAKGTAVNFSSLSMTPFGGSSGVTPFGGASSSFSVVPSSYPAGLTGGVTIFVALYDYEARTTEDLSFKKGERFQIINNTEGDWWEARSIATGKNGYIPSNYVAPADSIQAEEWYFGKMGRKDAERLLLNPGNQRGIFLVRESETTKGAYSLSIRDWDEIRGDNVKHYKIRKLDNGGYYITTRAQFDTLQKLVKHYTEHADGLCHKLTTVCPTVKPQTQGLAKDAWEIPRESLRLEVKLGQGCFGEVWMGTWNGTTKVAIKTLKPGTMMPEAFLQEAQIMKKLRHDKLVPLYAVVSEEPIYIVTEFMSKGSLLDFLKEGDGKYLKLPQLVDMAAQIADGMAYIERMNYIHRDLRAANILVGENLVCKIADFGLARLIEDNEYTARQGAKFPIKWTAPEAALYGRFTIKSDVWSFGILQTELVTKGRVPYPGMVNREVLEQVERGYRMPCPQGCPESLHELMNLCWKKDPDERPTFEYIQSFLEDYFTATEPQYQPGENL
Ribosomal protein S6 kinase beta-2 (Homo sapiens), sequence (Q9UBS0 whole entry, the tested form may be a part): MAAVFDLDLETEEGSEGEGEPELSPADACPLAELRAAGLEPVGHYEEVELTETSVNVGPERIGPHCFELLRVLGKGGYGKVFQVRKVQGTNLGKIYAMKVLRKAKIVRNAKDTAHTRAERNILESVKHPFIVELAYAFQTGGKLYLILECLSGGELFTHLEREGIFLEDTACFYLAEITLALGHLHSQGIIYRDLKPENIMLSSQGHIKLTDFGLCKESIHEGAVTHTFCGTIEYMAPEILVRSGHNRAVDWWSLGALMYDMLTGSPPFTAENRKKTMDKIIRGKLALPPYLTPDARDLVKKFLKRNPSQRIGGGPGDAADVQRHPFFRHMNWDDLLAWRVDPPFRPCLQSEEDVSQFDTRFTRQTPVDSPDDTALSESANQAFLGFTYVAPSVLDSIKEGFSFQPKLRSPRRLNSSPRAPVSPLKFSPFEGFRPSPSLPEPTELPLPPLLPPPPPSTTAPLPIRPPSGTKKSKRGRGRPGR
Serine/threonine-protein kinase pim-2 (Homo sapiens), sequence (Q9P1W9 whole entry, looked up, the tested form may be a part): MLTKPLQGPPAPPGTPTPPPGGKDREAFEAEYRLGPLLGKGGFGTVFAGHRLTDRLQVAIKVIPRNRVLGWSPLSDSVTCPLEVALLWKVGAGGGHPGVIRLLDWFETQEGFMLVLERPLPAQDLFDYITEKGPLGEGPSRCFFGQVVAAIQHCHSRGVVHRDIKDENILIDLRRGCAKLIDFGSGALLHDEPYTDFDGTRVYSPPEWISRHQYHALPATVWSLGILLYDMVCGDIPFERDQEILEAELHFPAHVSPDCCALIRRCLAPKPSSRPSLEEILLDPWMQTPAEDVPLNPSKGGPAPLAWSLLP
Tyrosine-protein kinase JAK3 (Homo sapiens), sequence (P52333 whole entry, the tested form may be a part): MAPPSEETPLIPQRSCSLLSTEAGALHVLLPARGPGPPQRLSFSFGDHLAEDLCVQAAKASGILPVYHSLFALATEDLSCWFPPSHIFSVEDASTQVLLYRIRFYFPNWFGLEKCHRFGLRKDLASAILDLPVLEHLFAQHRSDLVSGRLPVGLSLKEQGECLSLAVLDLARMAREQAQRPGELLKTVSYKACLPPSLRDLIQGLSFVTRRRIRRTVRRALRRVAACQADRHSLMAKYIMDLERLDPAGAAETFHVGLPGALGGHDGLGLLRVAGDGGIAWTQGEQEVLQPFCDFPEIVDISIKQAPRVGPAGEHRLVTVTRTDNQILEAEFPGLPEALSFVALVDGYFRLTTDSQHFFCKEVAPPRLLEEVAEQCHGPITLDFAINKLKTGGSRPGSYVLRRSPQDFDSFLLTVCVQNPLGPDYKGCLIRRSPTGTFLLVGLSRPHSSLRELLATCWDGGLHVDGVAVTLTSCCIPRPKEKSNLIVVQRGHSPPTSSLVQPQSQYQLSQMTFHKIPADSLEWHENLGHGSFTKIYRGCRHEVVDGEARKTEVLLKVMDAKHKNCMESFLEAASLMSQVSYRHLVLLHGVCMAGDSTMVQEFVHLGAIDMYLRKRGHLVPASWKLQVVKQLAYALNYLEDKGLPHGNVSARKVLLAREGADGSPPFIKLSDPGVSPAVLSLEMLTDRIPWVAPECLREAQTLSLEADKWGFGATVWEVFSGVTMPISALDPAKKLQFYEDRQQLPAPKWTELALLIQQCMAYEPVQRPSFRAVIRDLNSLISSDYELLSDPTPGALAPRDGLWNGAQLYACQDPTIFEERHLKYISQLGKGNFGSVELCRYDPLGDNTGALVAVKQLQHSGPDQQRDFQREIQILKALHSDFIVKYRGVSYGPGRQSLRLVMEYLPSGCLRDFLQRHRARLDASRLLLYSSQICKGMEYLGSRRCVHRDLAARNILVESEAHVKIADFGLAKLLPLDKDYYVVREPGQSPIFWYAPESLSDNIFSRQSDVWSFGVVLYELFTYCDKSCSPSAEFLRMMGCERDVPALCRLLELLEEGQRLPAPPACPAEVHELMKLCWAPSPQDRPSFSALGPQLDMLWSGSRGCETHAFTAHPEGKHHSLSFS

As a reminder, the inhibition is the relative decrease from the control value, in per cent. As for `Cc1cc(C)c(CNC(=O)c2cc(Br)c3c(c2C)O[C@@](C)([C@H]2CC[C@H](N(C)C)CC2)O3)c(=O)[nH]1`, the inhibition in [1] is -3.9%; in assay [2], -1.7%; in [3], -1.1%; in [4] it was -4.9%; in assay [5] it was -1.6%; in [6] it was -6.2%. For the same compound, the inhibition is -1.2% in assay [7]; -9.2% in [8]; 19.9% in assay [9]; 5.2% in assay [10]; -3.3% in assay [11]; -2% in assay [12]. Moreover, the inhibition in assay [13] is 3%; in assay [14], -2.6%; in assay [15], -0.1%; in [16] it was -1.6%; in assay [17] it was -4.7%; in [18], 2.1%. Moreover, the inhibition in assay [19] is -3.9%; in assay [20], 3%; in [21], -2.5%; in [22] it was -5.4%.

On to `Cc1cc(C)c(CNC(=O)c2cc(Cl)c3c(c2C)O[C@@](C)([C@H]2CC[C@H](N(C)C)CC2)O3)c(=O)[nH]1` [VALEMETOSTAT], for which the inhibition in assay [1] is -3%; in assay [2], -4%; in assay [3], -3%; in assay [4], -7.6%; in [5] it was -1.8%; in [6], -5.3%. Moreover, the inhibition in [7] is -0.7%; in [8], 21.9%; in assay [9] it was -2.1%; in [10], 5.2%; in [11], 1.7%; in [12], 1.6%. Besides, the inhibition in assay [13] was -3%; in assay [14] it was -0.5%; in assay [15] it was 0.7%; in assay [16], -3%; in [17], -6.9%; in assay [18], 5.2%. The inhibition in assay [19] is -1.4%; in assay [20], -2.5%; in assay [21], -3.3%; in assay [22], -5.9%.
